# Test results reported in patent publication US20050038113A1, “Valproic acid and derivatives for the combinatorial therapeutic treatment of human cancers and for the treatment of tumor metastasis and minimal residual disease” (G2M Cancer Drugs AG, priority 2001, published 2005).
# What was measured:
# [1] = tested on: MT450 breast cancer cells; assay: MT450 rat breast cancer model, subcutaneous tumor growth and lung metastasis; type: in vivo
# Protocol: MT450 cells were grown in DMEM/W10% FCS medium and tested for absence of mycoplasms just prior to injection. Cells were washed twice in PBS and suspended to a density of 5×10^6 cells per ml of PBS. 5×10^5 cells in 0.1 ml of PBS were injected into each rat. […] Rats were left to grow primary tumors for 21 days. […] The solution was sterile filtered. The compound was applied by i.p. injection. […] Two doses per day were applied. Control animals received equal amounts of a sterile isotonic sodium chloride solution.
# The experiment was terminated when tumor size in one of the rats of the control group had reached the legal limit of 50 mm. Necropsy at that time was performed on all rats of the experiment to assess lung metastasis. […] Metastasis was also found in 7 out of 8 VPA-treated rats. However, size and number of metastases were much smaller compared to NaCl-treated rats. A dose finding experiment had shown that the chosen dosage protocol lead to high initial serum levels (e.g. 3.6 mM at 1 hour after i.p. injection) which rapidly dropped (e.g. 0.25 mM at 4 hours after i.p. injection) below those levels which are maintained during therapy of epilepsy in human.
# mouse embryos = conditions: when properly dosed; cited from earlier work
# [2] = tested on: MDA-MB468 breast carcinoma cells; assay: MTT cell viability assay; type: cell-based, Human
# Protocol: (§1) Human MDA-MB468, MDA-MB453 and SKBR3 breast carcinoma cells and A431 squamous cell carcinoma cells were maintained in Dulbecco's modified Eagle's medium (DMEM, BioWhittaker, Verviers, Belgium) supplemented with 10% heat inactivated fetal bovine serum (FBS), 2 mM L-glutamine, 100 units/ml penicillin, and 100 μg/ml streptomycin.
# (§2) Tumor cells were seeded in 96 well plates at a density of 1×10^4 cells/well in normal growth medium. […] Control cells were grown in the absence of valproic acid or antibodies. 10 μl of 10 mg/ml 3-(4,5-dimethylthiazole-2-yl)-2,5 diphenyltetrazolium bromide (MTT) (Sigma, Deisenhofen, Germany) in PBS were added to each well and the cells were incubated for another 3 h. Cells were lysed by the addition of 90 μl of lysis buffer (20% SDS in 50% dimethyl formamide, pH 4.7). After solubilization of the formazan product, the absorption at 590 nm was determined in a microplate reader (Dynatech, Denkendorf, Germany) and the relative amount of viable cells in comparison to cells cultured without the addition of valproic acid or antibodies was calculated.
# [3] = tested on: MDA-MB453 breast carcinoma cells; assay: MTT cell viability assay; type: cell-based, Human; conditions: 70 h
# Protocol: as §1, §2
# [4] = tested on: A431 squamous cell carcinoma cells; assay: MTT cell viability assay; type: cell-based, Human; conditions: for cell viability: single reagent, valproic acid 3 mM
# Protocol: as §1, §2
# (§3) Human SKBR3 breast carcinoma cells, A431 squamous cell carcinoma cells and SKOV3 ovarian carcinoma cells were maintained in Dulbecco's modified Eagle's medium (DMEM, BioWhittaker, Verviers, Belgium) supplemented with 10% heat-inactivated fetal bovine serum (FBS), 2 mM L-glutamine, 100 units/ml penicillin, and 100 μg/ml streptomycin.
# (§4) Tumor cells were seeded in 96 well plates at a density of 1×10^4 cells/well in normal growth medium. […] Renca-lacZ/ErbB2, Renca-lacZ/EGFR and Renca-lacZ/EGFRvIII cells were treated for 40 h with valproic acid at a final concentration of 1 mM, or 10 ng/ml of the recombinant anti-ErbB2 single chain antibody-toxin scFv(FRP5)-ETA, or 1 ng/ml of the recombinant anti-EGF receptor single chain antibody-toxin scFv(14E1)-ETA, or a combination of valproic acid with either scFv(FRP5)-ETA or scFv(14E1)-ETA at the same concentrations. Control cells were grown in the absence of valproic acid or antibody-toxins. Ten μl of 10 mg/ml 3-(4,5-dimethylthiazole-2-yl)-2,5 diphenyltetrazolium bromide (MTT) (Sigma, Deisenhofen, Germany) in PBS were added to each well and the cells were incubated for another 3 h. Cells were lysed by the addition of 90 μl of lysis buffer (20% SDS in 50% dimethyl formamide, pH 4.7). After solubilization of the formazan product, the absorption at 590 nm was determined in a microplate reader (Dynatech, Denkendorf, Germany) and the relative amount of viable cells in comparison to cells cultured without the addition of valproic acid or antibody-toxins was calculated.
# [5] = tested on: SKBR3 breast carcinoma cells; assay: MTT cell viability assay; type: cell-based, Human; conditions: for cell viability: single reagent, valproic acid 3 mM
# Protocol: as §1, §2, §3, §4
# [6] = tested on: HCT-15 colon cancer cells; assay: SRB-assay, reduction in total cellular biomass; type: cell-based, human
# Protocol: The reduction in cellular biomass was measured by SRB-assay. For this assay cells were seeded in 96 well culture dishes at densities between 3000 and 8000 cells per well. […] Cultures were fixed with cold TCA producing a final TCA concentration of 10%. After 1 hour of incubation at 4° C. the cells were washed five times with water and air dried. Fixed cells were stained for 30 minutes with 0,4% (wt/vol) Sulforhodamine B (SRB) dissolved in 1% acetic acid and washed four times with 1% acetic acid to remove unbound dye. After air drying bound dye was solubilized with 10 mM unbuffered Tris base (pH 10,5) for 5 minutes. Optical densities were read on a Titertek Multiskan Plus spectrophotometric plate reader at 550 nm. Six test wells for each dose-response were set in parallel with 12 growth control wells per cell line. A measure of the cell population density at time 0 (To; the time at which the drug was added) was also made from 12 extra reference wells of cells fixed with TCA just prior to drug addition to the test plates. Background OD of complete medium with 5% FBS fixed and stained as described above was also determined in 12 separate wells. From the unprocessed OD data from each microtiter plate the background OD measurements (i.e. OD of complete medium plus stain and OD of cells at T0) were subtracted thus giving the reduction of cellular biomass of the cells.
# This was in particular obvious when lower concentrations of 5-FU were used. E.g. […] Thus, this combinatorial activity of these two drugs must be explained via a synergistic activity of this treatment.
# [7] = 3 mM valproic acid + 10 ng/ml scFv(14E1)-ETA, 40 h
# [8] = 3 mM valproic acid + 10 ng/ml scFv(FRP5)-ETA, 40 h
# [9] = 40 h, scFv(FRP5)-ETA 10 ng/ml, scFv(14E1)-ETA 10 ng/ml
compound,measurement,setting,value
"CCCC(CCC)C(=O)O [VPA, 2-propylpentanoic acid]",size and number of metastases compared to NaCl-treated rats,"[1]; 1.25 mmol VPA per kg BW i.p., two doses per day",much smaller
same,growth of the primary tumors (tumor volume),"[1]; 1.25 mmol VPA per kg BW i.p., two doses per day, vs sodium chloride solution",delays tumor expansion
same,rats with lung metastasis at necropsy,"[1]; VPA-treated rats, 1.25 mmol/kg i.p. twice daily, all rats of the control group showed metastasis",7 out of 8
same,teratogenicity,mouse embryos,teratogenic in the majority of mouse embryos
same,"cell viability, combination treatment","[2]; 3 mM VPA + 2 μg/ml c225, 70 h",synergistic reduction of cell viability
same,cell viability,"[2]; single reagent, 70 h, valproic acid 3 mM, c225 2 μg/ml",inhibit the viability
same,"cell viability, combination treatment",[3]; 3 mM VPA + 2 μg/ml Herceptin,synergistic reduction of cell viability
same,cell viability,"[3]; single reagent, valproic acid 3 mM, Herceptin 2 μg/ml",inhibit the viability
same,"cell viability, combination treatment","[4]; 3 mM VPA + 2 μg/ml c225, 70 h",synergistic reduction of cell viability
same,"cell viability, combination treatment",[4]; [7],pronounced additive therapeutic effect
same,"cell viability, combination treatment",[4]; [8],pronounced additive therapeutic effect
same,cell viability,[4]; [9],inhibit the viability
same,cell viability,"[4]; 70 h, c225 2 μg/ml",inhibit the viability
same,"cell viability, combination treatment",[5]; [7],pronounced additive therapeutic effect
same,"cell viability, combination treatment",[5]; [8],pronounced additive therapeutic effect
same,"cell viability, combination treatment","[5]; 3 mM valproic acid + 2 μg/ml Herceptin, 70 h",pronounced additive therapeutic effect
same,cell viability,[5]; [9],inhibit the viability
same,cell viability,"[5]; 70 h, Herceptin 2 μg/ml",inhibit the viability
same,reduction in cellular biomass,"[6]; 0.75 mM VPA in combination with 5-FU, 48 hours, compared to VPA or 5-FU alone",synergistic reduction in cellular biomass
same,decrease in cellular biomass,"[6]; 5-FU lower than 0.5 μM in combination with 0.75 mM VPA, compared to 0.75 mM VPA alone",stronger decrease in cellular biomass
